We go through six compounds from US20180168154A1, “PLANT GROWTH REGULATING COMPOUNDS” (Syngenta Participations AG, priority 2015, published 2018).

Like-named read-outs stand apart in the source and are kept apart here. Marks after values point to notes of the source that are not given here.

Series [1] is described as follows: Hydrolytic stability assay. Format: physicochemical. As to conditions: for half-life: 20 mM mixed acetate, borate and phosphate buffer; for half-life / Hydrolytic Stability (t1/2, hours) pH 7: 40° C.; for % remaining at last assessment time: pH 7, 40° C. On the procedure:
The objective of the hydrolytic stability assays is to determine the chemical stability of individual test compounds according to the invention in a controlled and reproducible environment, allowing a comparison of compound in vitro stability under aqueous conditions at pH 7 and 9. Prior to conducting the individual hydrolytic stability assays, stock solutions containing 1000 ppm of each test compound (ie, compounds (IA-1a), (IA-1b), (IA-17a), (IA-17b), P1 and P2) were prepared in methanol. The reagents used in the assays were prepared as follows. A 20 mM buffer solution was prepared from a stock solution of 20 mM mixed acetate, borate and phosphate buffer and the pH adjusted to 7 or 9 as required. Test solutions were prepared in LC vials for each test compound in the following manner: Mobile Phase Control: Mobile phase (1 mL)+compound stock solution (2 to 40 μL). Hydrolytic Stability: Buffer (1 mL)+compound stock solution (2 to 40 μL). The mobile phase and buffer were initially dispensed into separate glass LC vials, placed into an autosampler complete with thermostat set at 40° C. and allowed to equilibrate for 30 minutes prior to starting the individual assays. Reactions were initiated by addition of the compound solution and monitored through a series of repeat injections made directly from the vial into the HPLC system at regular time intervals. Initial and subsequent measurements of peak area attributable to the test compound were used to fit exponential half-lives and calculate first-order rate constants. […] Consequently, the percentage of compound remaining was recorded at the last assessment time.

Another series can be described thus: Soil stability assay. Format: physicochemical. Particulars: Stein soil:sand 1:1, 0.3 μg/g soil, dark, 20° C. The source says:
It is highly desirable that agrochemicals applied to soil in order to deliver a beneficial biological effect can exist in the soil for a prolonged period of time with minimal degradation. However, a biologically active agrochemical compound may undergo chemical transformation in soil, leading to decreased levels of activity and a decrease in a desired biological effect. Simple laboratory degradation studies can be used to evaluate the disappearance due to biotic and abiotic processes of a compound in soil. The time taken for a compound to degrade in soil allows the estimation of their half-life (t1/2), which corresponds to the time in which 50% of the compound under evaluation is degraded in soil. […] Stock standard solutions were prepared by dissolving 1 mg of each test compound (ie, compounds (IA-1a and IA-1b), (IA-17a and IA-17b), P1 and P2) in acetonitrile. The stock standard solutions were stored at 6° C. Working standard solutions were then obtained by a series of dilutions of the stock standard solutions. A treatment solution of 100 μg/mL concentration for each test compound was prepared in methanol. Soil samples used for this soil stability assay were collected at the Syngenta Research Centre location in Stein (Switzerland). The soil was classified as clay loam. Certain physical properties of the soil are described in Table 2. 2 mm sieved Stein soil was mixed with sand at ratio 1:1 prior to starting the laboratory soil degradation experiment. 10 g of the sand-soil mix (air-dried basis) was weighed into 50 ml Corning® polypropylene centrifuge tubes and soil moisture was adjusted at 45% of the field capacity. Chemical application was performed by applying 30 μl of a 100 μg/mL solution of each test compound to 10 g soil vessel corresponding to a final concentration of 0.3 μg test compound per gram of soil. Three replicates were considered for each test compound. Treated tubes were incubated in the dark at 20° C.±0.5. For the estimation of half-life, different sampling times were considered. Based on initial studies, a fast degradation was expected for compounds P1, P2 and IA-17 therefore the following short sampling times of 0, 3, 6, 9 and 24 hours after application were considered. Conversely for compounds IA-1, longer sampling times of 0, 6, 24, 48, 72, 168 and 240 hours after application were used. At each sampling time, samples were removed and stored at −80° C. until analysis. The half-lives were calculated by an exponential regression analysis plotting the percentage of recovered compound in soil against the time. Compounds P1, P2, (IA-1) and (IA-17) were extracted from soil by using 30 mL of Acetonitrile (CHROMASOLV® gradient grade, for HPLC, >99.9%, SIGMA-ALDRICH). The mixture was shaken for 3 hours at room temperature by using a vertical rotary shaker. After centrifugation at 3000 rpm for 5 minutes, an aliquot of the supernatant was collected and analyzed via UPLC-MS (Waters Acquity UPLC-MS PDA-Detection: 254 nm- and SQD-Zspray ESI, APCI, ESCi®-; Waters Acquity UPLC Column HSS T3 2.1×30 mm-1.8 μm; Gradient mobile phase with Solvent A: Water/MeOH (9:1)+ 0.1% Formic Acid and Solvent B: Acetonitrile+ 0.1% Formic Acid; flow of 0.75 ml/min).

In the next series the test system is NK Falkone corn seeds. The series can be described thus: Corn seed germination under cold stress. Particulars: 250 μM, cold stress 15° C., control T50 = 110 hours; negative = faster germination. It is filed as in vivo. On the procedure: Corn seed germination studies were undertaken on the compounds of the present invention. In particular, the effect of the compounds of Formulae (IA-1a) and (IA-1b) on the germination of NK Falkone corn seeds (Syngenta) under cold stress was evaluated as follows.
NK Falkone corn seeds were sorted by size using 2 sieves, one excluding very big seeds and the other with round holes of 8 to 9 mm diameter. The seeds retained by the latter sieve were used for the germination test.
The corn seeds were placed in 24 well plates (each plate is considered as one experimental unit or replicate). Germination is initiated by the addition of 250 μl of distilled water containing 0.5% DMSO per well as a means for compound solubilization. 8 replicates (ie, 8 plates) were used for each treatment characterization. Plates were sealed using seal foil (Polyolefin Art. Nr. 900320) from HJ-BIOANALYTIK. All plates were placed horizontally on trolleys in a climatic chamber at 15° C. or 23° C. in complete darkness. The experiment was laid out in a completely randomized design in a climatic chamber with 75% relative humidity. Foils were pierced, one hole per well using a syringe after 72 hours for experiments performed at 15° C. and after 24 hours for experiments performed at 23° C.
Germination was followed over time by taking photographs at different time points. Image analysis is done automatically with a macro developed using the Image J software. A dynamic analysis of germination is carried out by fitting a logistic curve to the relationship between % germination and time for each plate (T50 parameter).
T50 is the time needed for half the seed population to be germinated. A negative value of T50 represents a faster germination rate. The mean of T50 parameters is calculated for the 8 replicates and the kinetic parameter is determined for each germination curve. Data in bold indicate germination enhancing statistically significant differences between treated seeds and control (empty vehicle treated) T50 values (P<0.05) as outlined in Table 4.

Setting [2] is: pH 9, 20 mM acetate/borate/phosphate buffer, read-out: Hydrolytic Stability (t1/2, hours) pH 9 (converted).
Where [3] appears, read: pH 7, 20 mM acetate/borate/phosphate buffer.
Setting [4] is: pH 7, 20 mM acetate/borate/phosphate buffer, read-out: Hydrolytic Stability (t1/2, hours) pH 7 (converted).

With `COC1=C(C)C(=O)O[C@@H]1O/C=C1/C(=O)N[C@@H]2c3ccccc3C[C@H]12` [(IA-17b), (3E,3aR,8bS)-3-[[(2S)-3-methoxy-4-methyl-5-oxo-2H-furan-2-yl]oxymethylene]-1,3a,4,8b-tetrahydroindeno[1,2-b]pyrrol-2-one], the half-life in series [1] (setting [2]) is 19 h. Further, the “Hydrolytic Stability (t1/2, hours) pH 7” value in series [1] (setting [3]) was “stable^c”; in series [1] (pH 7, 20 mM acetate/borate/phosphate buffer, listed as IA-17b), “insufficient loss was observed”. In series [1] (at 16.8 hours), the “% remaining at last assessment time” value was “^c99.0% remaining at 16.8 hours”. Moreover, the “Soil Stability (t1/2, hours)” value in the series “Soil stability assay” turned out to be 312 h. Besides, in the series on NK Falkone corn seeds, the “T50 (% vs control)” value is reported as −5.10 % vs control.

Take `COC1=C(C)C(=O)O[C@H]1O/C=C1/C(=O)N[C@@H]2c3ccccc3C[C@H]12` [(IA-17a), (3E,3aR,8bS)-3-[[(2R)-3-methoxy-4-methyl-5-oxo-2H-furan-2-yl]oxymethylene]-1,3a,4,8b-tetrahydroindeno[1,2-b]pyrrol-2-one]: the half-life in series [1] (setting [2]) is 16.6 h. The “Hydrolytic Stability (t1/2, hours) pH 7” value in series [1] (setting [3]) was “stable^d”; in series [1] (pH 7, 20 mM acetate/borate/phosphate buffer, listed as IA-17a) it was “insufficient loss was observed”. In addition, the “% remaining at last assessment time” value in series [1] (at 17.3 hours) was “^d99.1% remaining at 17.3 hours”. Moreover, in the series “Soil stability assay”, the “Soil Stability (t1/2, hours)” value came to 340 h. Moreover, the “T50 (% vs control)” value in the series with NK Falkone corn seeds is −6.50 % vs control.

With `CC1=C(C)[C@@H](O/C=C2/C(=O)N[C@@H]3c4ccccc4C[C@H]23)OC1=O` [(IA-1b), (3E,3aR,8bS)-3-[[(2S)-3,4-dimethyl-5-oxo-2H-furan-2-yl]oxymethylene]-1,3a,4,8b-tetrahydroindeno[1,2-b]pyrrol-2-one], in series [1] (setting [2]), the half-life is 2.1 h. Further, the “Hydrolytic Stability (t1/2, hours) pH 7” value in series [1] (setting [3]) is listed as “stable^a”; in series [1] (pH 7, 20 mM acetate/borate/phosphate buffer, listed as IA-1b), “insufficient loss was observed”. Moreover, the “% remaining at last assessment time” value in series [1] (at 21.1 hours) was “^a90.9% remaining at 21.1 hours”. Moreover, the “Soil Stability (t1/2, hours)” value in the series “Soil stability assay” was 53 h. The “T50 (% vs control)” value in the series on NK Falkone corn seeds is recorded as −7.60 % vs control.

As for `CC1=C[C@@H](O/C=C2/C(=O)N[C@@H]3c4ccccc4C[C@H]23)OC1=O` [Compound P2, reference compound], the half-life in series [1] (setting [4]) is 79.5 h; in series [1] (setting [2]) it was 0.3 h. Also, the “% remaining at last assessment time” value in series [1] (at 15.8 hours) is reported as “^e86.9% remaining at 15.8 hours”. Further, the “Soil Stability (t1/2, hours)” value in the series “Soil stability assay” turned out to be 4.2 h. The “T50 (% vs control)” value with NK Falkone corn seeds is given as −2.30 % vs control.

Turning to `CC1=C(C)[C@H](O/C=C2/C(=O)N[C@@H]3c4ccccc4C[C@H]23)OC1=O` [(IA-1a), (3E,3aR,8bS)-3-[[(2R)-3,4-dimethyl-5-oxo-2H-furan-2-yl]oxymethylene]-1,3a,4,8b-tetrahydroindeno[1,2-b]pyrrol-2-one], in series [1] (setting [2]), the half-life is 2.4 h. For the same compound, the “Hydrolytic Stability (t1/2, hours) pH 7” value in series [1] (setting [3]) is “stable^b”; in series [1] (pH 7, 20 mM acetate/borate/phosphate buffer, listed as IA-1a), “insufficient loss was observed”. Moreover, the “% remaining at last assessment time” value in series [1] (at 17.9 hours) is reported as “^b91.8% remaining at 17.9 hours”. In addition, the “Soil Stability (t1/2, hours)” value in “Soil stability assay” is 87 h. The “T50 (% vs control)” value in the series with NK Falkone corn seeds was −6.10^c % vs control.

For `CC1=C[C@H](O/C=C2/C(=O)N[C@@H]3c4ccccc4C[C@H]23)OC1=O` [Compound P1, reference compound], the half-life was 25.6 h in series [1] (setting [4]) and 0.4 h in series [1] (setting [2]). Also, in series [1] (at 21.5 hours), the “% remaining at last assessment time” value was “^f55.4% remaining at 21.5 hours”. Besides, the “Soil Stability (t1/2, hours)” value in “Soil stability assay” was 4 h. The “T50 (% vs control)” value in the series with NK Falkone corn seeds is −4.20 % vs control.
